These molecules were tested on E. multilocularis metacestode vesicles (assay: Metacestode vesicle viability assay (ATP, CellTiter-Glo)). Conditions: overview screen, 10 μM, singlets, 12 days, relative to DMSO control.
Format: cell-based, Echinococcus multilocularis
Experimental: Viability was assessed after 12 days using the same metacestode vesicles as for the PGI release assay. Triton X-100 was added to each well to a final concentration of 0.1 %. Subsequently the metacestode vesicles were broken mechanically and 50 μL of the supernatant was mixed with 50 μL of CellTiter-Glo® buffer (Promega, Dübendorf, Switzerland). Measurements were performed on a HIDEX Sense microplate reader.
`CC(C)(C)c1ccc(C(=O)NC(=O)N2CCCc3ccccc32)cc1` [MMV1782212] was tested, and the “Viability d12 (relative viability)” value was 85.4175%. In the case of `CCC(CC)[C@H](NC(C)=O)[C@@H]1[C@H](O)[C@@H](C(=O)O)C[C@H]1NC(=N)N` [MMV1593511], the “Viability d12 (relative viability)” value is reported as 73.923%. `Fc1ccc(-n2cc(Cn3c(-c4cccc(F)c4)nc4ccccc43)nn2)cc1` [MMV1580850] was tested, and the “Viability d12 (relative viability)” value was 34.9853%. `COc1ccc(C[C@@H](C)[C@@H](C)Cc2ccc(OC)c(OC)c2)cc1OC` [MMV1581036] was tested, and the “Viability d12 (relative viability)” value was 132.486%. `COc1cc(C(C)(C)CCCC(C)C)cc(OC)c1OC` [MMV1782102] was tested, and the “Viability d12 (relative viability)” value was 58.4954%. `C[C@@H](NC(=O)c1ccccc1-c1ccccc1)B(O)O` [MMV1582493] was tested, and the “Viability d12 (relative viability)” value was 135.265%. In the case of `CC(=O)NC[C@H]1CN(c2ccc(N3CCSCC3)c(F)c2)C(=O)O1` [MMV688756], the “Viability d12 (relative viability)” value is reported as 97.3563%. For `CCOC(=O)N[C@@H]1CC[C@@H]2[C@@H](C1)C[C@H]1C(=O)O[C@H](C)[C@H]1[C@H]2/C=C/c1ccc(-c2cccc(F)c2)cn1` [MMV1593515], the “Viability d12 (relative viability)” value was 74.5757%. For `O=C(O)c1sccc1S(=O)(=O)n1ccc2cc(Br)ccc21` [MMV1580855], the “Viability d12 (relative viability)” value was 69.7674%. For `N[C@H](CCC(=O)N[C@@H](Cc1c[nH]c2ccccc12)C(=O)O)C(=O)O` [MMV1581033], the “Viability d12 (relative viability)” value was 121.646%. In the case of `CC(C)n1cnc2c(NCc3ccccc3)nc(NCc3ccccc3)nc21` [MMV1579780], the “Viability d12 (relative viability)” value is reported as 34.6202%. In the case of `CCCCN1C[C@H](O)[C@@H](O)[C@H](O)[C@H]1CO` [MMV1782098], the “Viability d12 (relative viability)” value is reported as 82.1234%. For `O=C(O)c1ccccc1Sc1ncnc2sc3c(c12)CCC3` [MMV1579878], the “Viability d12 (relative viability)” value was 137.353%. For `O=P(O)(O)C(CCCc1cccc(Oc2ccccc2)c1)S(=O)(=O)O` (stereo not drawn) [MMV1782215], the “Viability d12 (relative viability)” value was 65.7947%. In the case of `O=C(O)COc1cccc2c1CC[C@](O)(COC(=O)N(c1ccccc1)c1ccccc1)C2` [MMV1782352], the “Viability d12 (relative viability)” value is reported as 68.1339%. With `Cc1nc2ccc(Cl)cc2c(-c2ccccc2)c1CC(=O)O` [MMV1580801] the “Viability d12 (relative viability)” value was 42.503%.

The molecules below were run on E. multilocularis metacestode vesicles (assay: Phosphoglucose isomerase (PGI) release assay (damage-marker release) on metacestode vesicles). Conditions: overview screen, 10 μM, singlets, 5 days, relative to 0.1 % Triton X-100, DMSO subtracted.
Format: cell-based, Echinococcus multilocularis
With `CC(C)(C)c1ccc(C(=O)NC(=O)N2CCCc3ccccc32)cc1` [MMV1782212] the “PGI d5 (relative PGI release)” value was -2.428%. For `CCC(CC)[C@H](NC(C)=O)[C@@H]1[C@H](O)[C@@H](C(=O)O)C[C@H]1NC(=N)N` [MMV1593511], the “PGI d5 (relative PGI release)” value was 0.2364%. In the case of `Fc1ccc(-n2cc(Cn3c(-c4cccc(F)c4)nc4ccccc43)nn2)cc1` [MMV1580850], the “PGI d5 (relative PGI release)” value is reported as -2.0582%. For `COc1ccc(C[C@@H](C)[C@@H](C)Cc2ccc(OC)c(OC)c2)cc1OC` [MMV1581036], the “PGI d5 (relative PGI release)” value was 0.565%. For `COc1cc(C(C)(C)CCCC(C)C)cc(OC)c1OC` [MMV1782102], the “PGI d5 (relative PGI release)” value was 0.2099%. For `C[C@@H](NC(=O)c1ccccc1-c1ccccc1)B(O)O` [MMV1582493], the “PGI d5 (relative PGI release)” value was -2.006%. With `CC(=O)NC[C@H]1CN(c2ccc(N3CCSCC3)c(F)c2)C(=O)O1` [MMV688756] the “PGI d5 (relative PGI release)” value was -1.412%. For `CCOC(=O)N[C@@H]1CC[C@@H]2[C@@H](C1)C[C@H]1C(=O)O[C@H](C)[C@H]1[C@H]2/C=C/c1ccc(-c2cccc(F)c2)cn1` [MMV1593515], the “PGI d5 (relative PGI release)” value was 1.1006%. For `O=C(O)c1sccc1S(=O)(=O)n1ccc2cc(Br)ccc21` [MMV1580855], the “PGI d5 (relative PGI release)” value was 0.195%. For `N[C@H](CCC(=O)N[C@@H](Cc1c[nH]c2ccccc12)C(=O)O)C(=O)O` [MMV1581033], the “PGI d5 (relative PGI release)” value was 0.0006202%. `CC(C)n1cnc2c(NCc3ccccc3)nc(NCc3ccccc3)nc21` [MMV1579780] was tested, and the “PGI d5 (relative PGI release)” value was 13.6684%. In the case of `CCCCN1C[C@H](O)[C@@H](O)[C@H](O)[C@H]1CO` [MMV1782098], the “PGI d5 (relative PGI release)” value is reported as -0.9049%. `O=C(O)c1ccccc1Sc1ncnc2sc3c(c12)CCC3` [MMV1579878] was tested, and the “PGI d5 (relative PGI release)” value was -1.729%. In the case of `O=P(O)(O)C(CCCc1cccc(Oc2ccccc2)c1)S(=O)(=O)O` (stereo not drawn) [MMV1782215], the “PGI d5 (relative PGI release)” value is reported as 0.5378%. `O=C(O)COc1cccc2c1CC[C@](O)(COC(=O)N(c1ccccc1)c1ccccc1)C2` [MMV1782352] was tested, and the “PGI d5 (relative PGI release)” value was -0.08001%. In the case of `Cc1nc2ccc(Cl)cc2c(-c2ccccc2)c1CC(=O)O` [MMV1580801], the “PGI d5 (relative PGI release)” value is reported as 6.482%.

Same assay, conditions: overview screen, 10 μM, singlets, 12 days, relative to 0.1 % Triton X-100, DMSO subtracted
For `CC(C)(C)c1ccc(C(=O)NC(=O)N2CCCc3ccccc32)cc1` [MMV1782212], the “PGI d12 (relative PGI release)” value was -24.6748%. In the case of `CCC(CC)[C@H](NC(C)=O)[C@@H]1[C@H](O)[C@@H](C(=O)O)C[C@H]1NC(=N)N` [MMV1593511], the “PGI d12 (relative PGI release)” value is reported as -10.4107%. For `Fc1ccc(-n2cc(Cn3c(-c4cccc(F)c4)nc4ccccc43)nn2)cc1` [MMV1580850], the “PGI d12 (relative PGI release)” value was -24.0097%. For `COc1ccc(C[C@@H](C)[C@@H](C)Cc2ccc(OC)c(OC)c2)cc1OC` [MMV1581036], the “PGI d12 (relative PGI release)” value was 2.335%. In the case of `COc1cc(C(C)(C)CCCC(C)C)cc(OC)c1OC` [MMV1782102], the “PGI d12 (relative PGI release)” value is reported as -19.1561%. With `C[C@@H](NC(=O)c1ccccc1-c1ccccc1)B(O)O` [MMV1582493] the “PGI d12 (relative PGI release)” value was 35.0936%. With `CC(=O)NC[C@H]1CN(c2ccc(N3CCSCC3)c(F)c2)C(=O)O1` [MMV688756] the “PGI d12 (relative PGI release)” value was -2.526%. With `CCOC(=O)N[C@@H]1CC[C@@H]2[C@@H](C1)C[C@H]1C(=O)O[C@H](C)[C@H]1[C@H]2/C=C/c1ccc(-c2cccc(F)c2)cn1` [MMV1593515] the “PGI d12 (relative PGI release)” value was -17.1599%. For `O=C(O)c1sccc1S(=O)(=O)n1ccc2cc(Br)ccc21` [MMV1580855], the “PGI d12 (relative PGI release)” value was 35.1913%. In the case of `N[C@H](CCC(=O)N[C@@H](Cc1c[nH]c2ccccc12)C(=O)O)C(=O)O` [MMV1581033], the “PGI d12 (relative PGI release)” value is reported as -0.6563%. `CC(C)n1cnc2c(NCc3ccccc3)nc(NCc3ccccc3)nc21` [MMV1579780] was tested, and the “PGI d12 (relative PGI release)” value was 58.0803%. In the case of `CCCCN1C[C@H](O)[C@@H](O)[C@H](O)[C@H]1CO` [MMV1782098], the “PGI d12 (relative PGI release)” value is reported as -0.1991%. For `O=C(O)c1ccccc1Sc1ncnc2sc3c(c12)CCC3` [MMV1579878], the “PGI d12 (relative PGI release)” value was -24.5374%. `O=P(O)(O)C(CCCc1cccc(Oc2ccccc2)c1)S(=O)(=O)O` (stereo not drawn) [MMV1782215] was tested, and the “PGI d12 (relative PGI release)” value was 19.5176%. For `O=C(O)COc1cccc2c1CC[C@](O)(COC(=O)N(c1ccccc1)c1ccccc1)C2` [MMV1782352], the “PGI d12 (relative PGI release)” value was -0.2818%. For `Cc1nc2ccc(Cl)cc2c(-c2ccccc2)c1CC(=O)O` [MMV1580801], the “PGI d12 (relative PGI release)” value was 83.9153%.

Reference: publication PMC12410356 (International Journal for Parasitology: Drugs and Drug …, 2025)
